Assay results as given in US20150355179A1, “CDKACT BIOSENSORS-FLUORESCENT POLYPEPTIDE TO PROBE THE ACTIVITY OF CDK/CYCLIN KINASES IN VITRO, IN CELLULO AND IN VIVO” (CENTRE NATIONAL DE LA RECHERCHE SCIENTIFIQUE (CNRS), priority 2012, published 2015).

Experiments:
[1] = system: CDK/Cyclin kinase activity in HeLa cell extracts; experiment: Fluorescence kinase assay of CDKACTH1 in HeLa cell extracts; type: biochemical; details: 20 ug HeLa cell extracts, increasing concentrations of inhibitor
Protocol: (§1) Fluorescence kinase assays were performed in 96-well plates in a thermostated chamber (Polarstar BMG) at 30° C. in 200 ul phosphate buffer saline, pH 7.2, 150 mM NaCl, in the presence of 5 mM MgCl2, 0.5 mM ATP, except when stated otherwise. The fluorescence of Cy3-labelled CDKACTH1 with recombinant CDK/Cyclin complexes or with cell extracts was monitored over time. Changes in Cy3 fluorescence emission were recorded at 590 nm following excitation at 544 nm. In all experiments, the fluorescence of CDKACTH1-Cy3 alone was substracted from all other values. Data analysis and curve fitting were performed using the GraFit Software (Erathicus Ltd).
Cell culture media, serum and antibiotics were purchased from Invitrogen. HeLa, HS68, A549, MCF-7 and U2OS cells were cultured in DMEM+Glutamax supplemented with 10% FCS, 1 mM penicillin and 1 mM streptomycin at 37° C. in an atmosphere containing 5% CO2. HT2-19 cells, provided by Dr. A. Porter, were cultured in DMEM+NEAA, antibiotics, sodium pyruvate and glutamine, and supplemented with 10% FCS29. Cell extracts were prepared in TBS lysis buffer containing 50 mM TrisHCl, pH 7.4, 150 mM NaCl, 0.1% NP40, 0.1% Deoxycholate, 2 mM EDTA, 1 mM PMSF, Complete™ protease inhibitors (Roche), and normalized following spectrophometric dosage at 280 nm. Phosphatase inhibitors: 50 mM NaF, 40 mM β-Glycero-phosphate, 1 mM Na3VO4.
Kinase assays were performed in the same conditions as above. […] As shown in FIG. 4A-C, incubation of 20 ug HeLa cell extracts with CDKACTH1 yielded a very similar profile to that obtained with recombinant CDK/Cyclins, implying that these kinases were indeed phosphorylating the substrate sequence of the biosensor. […] Since phosphorylation events are counterbalanced by phosphatases in mammalian cell extracts, we asked whether the response measured would be further improved if phosphatase activity was blocked.

CDK4/Cyclin D = molecular target: T1, CDK4/Cyclin D (Homo sapiens, UniProt P11802); experiment: Real-time fluorescence kinase assay with recombinant CDK4/Cyclin D; type: biochemical; details: 20 uM inhibitor; 75 nM CDK4/CyclinD, 25 nM CDKACTH1-Cy3
T1 construct: made in house; host or cells: E. coli
Protocol: as §1
To address the issue of specificity, we asked whether other kinases could phosphorylate and thereby affect the fluorescence of CDKACTH1. We first examined CDK1/Cyclin B and CDK4/Cyclin D (FIGS. 3A and B).

A375 rvluc2 cells = experiment: A375 xenograft tumour growth in NMRI nude mice; type: in vivo; details: Roscovitine IP 50 mg/kg/day for 7 days
CDK2/Cyclin A = molecular target: T2, CDK2/Cyclin A (Homo sapiens, UniProt P24941); experiment: Real-time fluorescence kinase assay with recombinant active CDK2/Cyclin A; type: biochemical
T2 construct: made in house; host or cells: E. coli
Protocol: (§2) In order to characterize CDKACT-H1 biosensor in vitro, we first asked whether it could be used to monitor recombinant kinase activity in a real-time assay.
as §1, §2
In vitro characterization was performed as described in Example 2. […] Assays were performed at 30° C. for 1600s. Fluorescence emission of Cy5 was measured at 675 nm following excitation at 645 nm on Polarstar™ fluorimeter.
Assays were performed at 30° C. for 1600s. Fluorescence emission of Cy3 was measured at 590 nm following excitation at 544 nm on Polarstar™ fluorimeter.

T1 sequence (P11802 whole entry, species assumed): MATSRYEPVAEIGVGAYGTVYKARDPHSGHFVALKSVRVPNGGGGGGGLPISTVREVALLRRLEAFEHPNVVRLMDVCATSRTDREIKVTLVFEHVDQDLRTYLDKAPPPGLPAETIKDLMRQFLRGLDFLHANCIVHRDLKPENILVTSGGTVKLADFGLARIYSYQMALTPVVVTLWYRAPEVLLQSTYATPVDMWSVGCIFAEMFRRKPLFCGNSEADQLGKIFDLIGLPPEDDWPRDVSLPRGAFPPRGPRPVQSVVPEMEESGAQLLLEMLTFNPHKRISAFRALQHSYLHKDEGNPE
T1 sequence (P24385 whole entry partner, species assumed): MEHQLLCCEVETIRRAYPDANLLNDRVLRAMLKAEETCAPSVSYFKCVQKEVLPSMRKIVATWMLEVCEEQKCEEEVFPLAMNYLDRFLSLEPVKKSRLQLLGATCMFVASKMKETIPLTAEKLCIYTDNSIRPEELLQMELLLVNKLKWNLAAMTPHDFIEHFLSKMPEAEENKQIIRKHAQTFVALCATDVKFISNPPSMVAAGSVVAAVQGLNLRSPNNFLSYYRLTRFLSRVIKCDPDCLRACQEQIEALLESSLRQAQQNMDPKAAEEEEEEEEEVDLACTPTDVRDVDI

## CC(=O)c1c(C)c2cnc(Nc3ccc(N4CCNCC4)cn3)nc2n(C2CCCC2)c1=O [PD-0332991]
[1]
  share of CDKACTH1 phosphorylating activity attributed to the kinases blocked by the inhibitor: partial activity

## O=C1NC(=NCc2cccs2)S/C1=C\c1ccc2ncccc2c1 [RO3306]
[1]
  share of CDKACTH1 phosphorylating activity attributed to the kinases blocked by the inhibitor: larger part of activities

## CC[C@H](CO)Nc1nc(NCc2ccccc2)c2ncn(C(C)C)c2n1 [roscovitine]
CDK4/Cyclin D
  effect of inhibitor on the CDKACTH1 fluorescence signal: no effect
A375 rvluc2 cells; versus DMSO vehicle
  size of tumours compared to vehicle: 55.6%
A375 rvluc2 cells; versus non-treated control
  size of tumours compared to control: 53.8%
[1]
  share of CDKACTH1 phosphorylating activity attributed to the kinases blocked by the inhibitor: larger part of activities

## CDKACTWWH1: peptide biosensor SEQ ID No 20: Pin1 WW phosphobinding domain, linker SEQ ID No 14, histone H1 substrate domain; synthesized, dye-labelled (KLPPGWEKRMSRSSGRVYYFNHITNASQWERPSGPGAGGTGGLPGGGGCSTPKKAKKL; Cy5 or Cy3 dye label; Polypeptide comprising: the WW domain of PIN1 wherein all Cystein residues are replaced by a Serine residue, a linker and the CDK substrate domain from histone H1)
CDK2/Cyclin A; 25 nM Cy3-labelled sensors, 25 nM active CDK2/Cyclin A3
  fluorescence enhancement compared with CDKACTH1: greater changes in fluorescence enhancement
CDK2/Cyclin A; 25 nM Cy5-CDKACT-WWH1, 25 nM active CDK2/Cyclin A3, 5 mM ATP, 20 mM MgCl2
  fluorescence response to CDK2/CyclinA activity: significant changes in fluorescence enhancement
